For data set [1] the following is noted: BASF MSDS sheet; cited from earlier work.
Data set [2] is described as follows: Solubility/loading of local anesthetic in oils, castor oil and semi-solid vehicle. It counts as physicochemical.
A further data set has as its system sciatic nerve. Conditions: cited from earlier work.
For data set [3] the following is noted: cited from earlier work.
For data set [4] the following is noted: limited by low solubility in the vehicle; cited from earlier work.
[5] abbreviates: in poly(lactic acid-co-castor oil), single injection.

Structures are written as SMILES. Counter-ions that a name gives are not always drawn.

Take `CCCCN1CCCCC1C(=O)Nc1c(C)cccc1C` (stereo not drawn) [bupivacaine hydrochloride]: the water solubility in data set [1] is on record as 600 mg/mL.
Regarding `CCCCN1CCCCC1C(=O)Nc1c(C)cccc1C` (stereo not drawn) [bupivacaine], in data set [2], the “solubility in corn oil” value is given as 2.8 wt %, the “solubility in olive oil” value is reported as 2.5 wt %, the “solubility in sesame oil” value is given as 3.0 wt % and the “solubility in typical vegetable oils” value is given as “less than 3 wt %”. In data set [2], the “solubility in vegetable oil” value was 2.5 wt %. The “sciatic nerve blockade prolonged to” value in the data set with sciatic nerve (10% (w/v) in poly(sebacic-co-ricinoleic acid), from 8 hours) is 30 h. For the same compound, the “duration of nerve block” value in the data set on sciatic nerve (in poly(lactic acid-co-castor oil) at 10% (w/v)) was 1 to 2 days. Besides, the “duration of sensory blockade” value in the data set on sciatic nerve (in poly(lactic acid-co-castor oil) at 15% (w/v)) was 96 h. In addition, in the data set with sciatic nerve (setting [5]), the motor blockade was 64 h and the sensory blockade was 96 h. Also, in data set [3] (fractionated coconut oil, in less than two hours, rotating dialysis cell), the “release of bupivacaine from the oil” value is 80%. Also, in data set [3] (from poly(lactic acid-co-castor oil)), the “stored bupivacaine released during one week” value is 60%. For the same compound, the “incorporated drug released over one week in vitro” value in data set [3] (from poly(sebacic-co-ricinoleic acid)) is 70%.
As for `Cc1cccc(C)c1NC(=O)C1CCCCN1C` (stereo not drawn) [mepivacaine], the “amount that can be loaded into polyorthoester vehicle” value in data set [4] is listed as “about 3 wt %”.
